According to ChEMBL document CHEMBL5030552, “Computational Design of Potent D-Peptide Inhibitors of SARS-CoV-2” (J Med Chem, 2021):

Columns and labels:
[1] = tested on: SARS-CoV-2; test: Antiviral activity against SARS-CoV-2 B.1.1.7 variant assessed as neutralization viral infection in Vero cells by measuring cytopathic effect incubated for 4 days by crystal violet staining based assay; type: functional, organism-based; settings: Severe acute respiratory syndrome coronavirus 2, B.1.1.7, Vero, 96 h
[2] = tested on: SARS-CoV-2; test: Antiviral activity against SARS-CoV-2 B.1.351 variant assessed as neutralization viral infection in Vero cells by measuring cytopathic effect incubated for 4 days by crystal violet staining based assay; type: functional, organism-based; settings: Severe acute respiratory syndrome coronavirus 2, B.1.351, Vero, 96 h

Structure (SMILES) | IC50 [1] | IC50 [2]
CC[C@@H](C)[C@@H](NC(=O)CNC(=O)[C@@H](CC(C)C)NC(=O)CNC(=O)[C@@H](CCCCN)NC(=O)CNC(=O)[C@@H](CC(=O)O)NC(=O)[C@@H](Cc1ccccc1)NC(=O)[C@H](N)CCCNC(=N)N)C(=O)N[C@H](Cc1ccc(O)cc1)C(=O)N[C@H](CCC(N)=O)C(=O)N[C@H](Cc1ccc(O)cc1)C(=O)N[C@H](CCSC)C(=O)N[C@H](CCC(=O)O)C(=O)N[C@H](CCC(=O)O)C(=O)N[C@@H](C(=O)N[C@H](CCC(=O)O)C(=O)N[C@H](Cc1cnc[nH]1)C(=O)N[C@H](C)C(=O)N[C@H](C)C(=O)N[C@H](CO)C(=O)N[C@H](CCCNC(=N)N)C(=O)N[C@H](Cc1ccccc1)C(=O)N[C@H](C)C(=O)N[C@H](Cc1ccc(O)cc1)C(=O)N[C@H](Cc1ccccc1)C(=O)N[C@H](Cc1ccccc1)C(=O)N[C@H](Cc1ccc(O)cc1)C(=O)N[C@H](CCC(N)=O)C(=O)N[C@H](Cc1cnc[nH]1)C(=O)N[C@H](CC(C)C)C(=O)N[C@H](C)C(=O)O)[C@H](C)CC | 33.4 µM | 11.1 µM
CC[C@@H](C)[C@@H](NC(=O)[C@@H](Cc1cnc[nH]1)NC(=O)[C@H](NC(=O)[C@@H](CCC(=O)O)NC(=O)[C@@H](CCC(=O)O)NC(=O)[C@@H](CCSC)NC(=O)[C@@H](CC(C)C)NC(=O)[C@@H](C)NC(=O)[C@@H](Cc1ccc(O)cc1)NC(=O)[C@@H](CC(C)C)NC(=O)[C@@H](C)NC(=O)[C@H](NC(=O)[C@@H](CCC(N)=O)NC(=O)[C@H](N)CC(C)C)[C@H](C)O)[C@H](C)CC)C(=O)N[C@H](C)C(=O)N[C@H](C)C(=O)N[C@H](CC(C)C)C(=O)N[C@H](CCC(=O)O)C(=O)N[C@H](CCCCN)C(=O)N[C@@H](C(=O)N[C@H](Cc1c[nH]c2ccccc12)C(=O)N[C@@H](C(=O)N[C@H](C)C(=O)N[C@H](CC(C)C)C(=O)N[C@H](CCCNC(=N)N)C(=O)N[C@H](Cc1cnc[nH]1)C(=O)N[C@H](CCC(N)=O)C(=O)N[C@H](Cc1ccc(O)cc1)C(=O)N[C@@H](C(=O)O)[C@H](C)O)[C@H](C)O)[C@H](C)O | 5.57 µM | 7.37 µM
